Patent publication US20260078099A1, “COMPOUND, PREPARATION METHOD THEREOF, AND LIPID NANOPARTICLE AND PHARMACEUTICAL COMPOSITION” (priority 2023, published 2026)

Assays:
[1] = system: mice; test: Bioluminescent study, intramuscular injection of F-luc mRNA LNPs; format: in vivo; conditions: F-luc luminescence flux normalized to MC3; 0.25 mg/kg intramuscular, mice n=3, 6-hour time point
Protocol: The efficacy of nanoparticle compositions was evaluated using bioluminescent studies. A dose of 0.25 mg/kg (mpk) of the formulation was administered to mice (n=3) via intramuscular injection, and bioluminescence was measured at a 6-hour time point. The test lipid nanoparticles from the MC3 formulation were evaluated, and in some cases, controls (e.g., PBS controls) were assessed for comparison.
The characteristics of the test lipid nanoparticles measured from the test groups, including F-luc luminescence intensity, are listed in the table below.

[2] = LNP size and PDI by dynamic light scattering; format: physicochemical; conditions: mRNA LNP, cationic lipid/DSPC/cholesterol/PEG-lipid 50:10:38.5:1.5
Protocol: (§1) In summary, the cationic lipid described herein, DSPC, cholesterol, and PEG-lipid were dissolved in ethanol at a molar ratio of 50:10:38.5:1.5 and diluted in 10 mM to 50 mM citrate buffer at pH 4 with mRNA. Using a microfluidic device, the lipid ethanol solution was mixed with mRNA aqueous solution at a volume ratio of 1:3 and a total flow rate ranging from 6-30 mL/min, preparing LNPs with a total lipid to mRNA weight ratio of approximately 10:1 to 30:1. Ethanol was removed by dialysis and replaced with PBS. Finally, the lipid nanoparticles were filtered through a 0.22 μm sterile filter.
(§2) The size of lipid nanoparticles was measured by dynamic light scattering using a Malvern Zetasizer Nano ZS (Malvern, UK) with a 90° scattering detection mode. The encapsulation efficiency of lipid nanoparticles was determined using the Quant-it Ribogreen RNA Quantitation Kit (Thermo Fisher Scientific, UK) according to the manufacturer's instructions. The apparent pKa of LNP formulations correlates with the delivery efficiency of nucleic acids by LNPs in vivo. The apparent pKa ranges from approximately 5 to 7. An analysis based on fluorescence from 2-(p-tolylamino)-6-naphthalenesulfonic acid (TNS) was used to determine the apparent pKa of formulations. As described above, LNP formulations containing cationic lipid/DSPC/cholesterol/DMG-PEG (50/10/38.5/1.5 mol %) in PBS were prepared. A 300 μM stock solution of TNS in distilled water was prepared. LNP formulations were diluted to 0.1 mg/mL total lipid in 3 mL of buffer solution containing 50 mM sodium citrate, 50 mM sodium phosphate, 50 mM sodium borate, and 30 mM sodium chloride (pH ranged from 3 to 9). […] S-shaped curve best-fit analysis was applied to the fluorescence data, and the pKa value was measured as the pH value producing half-maximal fluorescence intensity.

[3] = LNP zeta potential; format: physicochemical; conditions: mRNA LNP
Text: Nanoparticle compositions can be characterized by various methods. For example, the morphology and size distribution of nanoparticle compositions can be examined using microscopy (e.g., transmission electron microscopy or scanning electron microscopy). The zeta potential can be measured using dynamic light scattering or potentiometric titration. Dynamic light scattering can also be used to determine particle size. Instruments such as the Zetasizer Nano ZS (Malvern Instruments Ltd., Malvern, Worcestershire, UK) can also be used to measure multiple characteristics of nanoparticle compositions, such as particle size, polydispersity index, and zeta potential.
[…]: The zeta potential of the nanoparticle composition can indicate the electrophoretic potential of the composition. For example, zeta potential may describe the surface charge of the nanoparticle composition. Nanoparticle compositions with relatively low positive or negative charges are generally desirable, as materials with higher charges may interact undesirably with cells, tissues, and other components in the body. In some embodiments, the zeta potential of the nanoparticle composition may be about −10 mV to about +20 mV, about −10 mV to about +15 mV, about −10 mV to about +10 mV, about −10 mV to about +5 mV, about −10 mV to about 0 mV, about −10 mV to about −5 mV, about −5 mV to about +20 mV, about −5 mV to about +15 mV, about −5 mV to about +10 mV, about −5 mV to about +5 mV, about −5 mV to about 0 mV, about 0 mV to about +20 mV, about 0 mV to about +15 mV, about 0 mV to about +10 mV, about 0 mV to about +5 mV, about +5 mV to about +20 mV, about +5 mV to about +15 mV, or about +5 mV to about +10 mV.

[4] = LNP encapsulation efficiency (Quant-it Ribogreen); format: physicochemical; conditions: mRNA LNP, cationic lipid/DSPC/cholesterol/PEG-lipid 50:10:38.5:1.5
Text: Encapsulation Efficiency: The encapsulation efficiency of a therapeutic and/or prophylactic agent refers to the amount of the therapeutic and/or prophylactic agent encapsulated within or otherwise associated with the nanoparticle composition relative to the initial amount provided during preparation. Encapsulation efficiency is desirably high (such as close to 100%). Encapsulation efficiency can be measured, for example, by comparing the amount of therapeutic and/or prophylactic agent in a solution containing the nanoparticle composition before and after disruption of the nanoparticle composition using one or more organic solvents or detergents. Fluorescence can be used to measure the amount of free therapeutic and/or prophylactic agent (e.g., RNA) in solution. For the nanoparticle compositions described herein, the encapsulation efficiency of the therapeutic and/or prophylactic agent may be at least 50%, such as 50%, 55%, 60%, 65%, 70%, 75%, 80%, 85%, 90%, 91%, 92%, 93%, 94%, 95%, 96%, 97%, 98%, 99%, or 100%. In some embodiments, the encapsulation efficiency may be at least 80%. In certain embodiments, the encapsulation efficiency may be at least 90%.
as §1, §2

SMILES | Relative Total flux [1] | PDI [2] | Size (nm) [2] | Zeta potential (mV) [3] | Encapsulation efficiency (%) [4]
CCCCC/C=C\C/C=C\CCCCCCCC(=O)N(CCCN1CCCC1)C(CCCCCCCCCCC)C(=O)NCCCCCCCCCCCCCC (stereo not drawn) [Compound A22] | C (C: ≥0.1 and <1) | – | – | – | –
CCCCCCCC(C(=O)NCCCCCCCCCC(=O)OC(CCCCCC)CCCCCC)N(CCCN(C)CCO)C(=O)CCCCCCCCCC(=O)OC(CCCCCC)CCCCCC (stereo not drawn) [Compound B8] | A (A: ≥2) | 0.152 | 60.47 nm | −7.30 mV | 91.38%
CCCCCCCCNC(=O)C(CCCCCCCC)N(CCN(CCO)CCO)C(=O)CCCCCCC(=O)OC(CCCCCCCC)CCCCCCCC (stereo not drawn) [Compound B32] | A (A: ≥2) | 0.32 | 119.93 nm | 7.87 mV | 93.95%
CCCCC/C=C\C/C=C\CCCCCCCCNC(=O)C(CCCCCCCC)N(CCCCCCCC/C=C\C/C=C\CCCCC)C(=O)CCCN(C)C (stereo not drawn) [Compound C2] | B (B: ≥1 and <2) | – | – | – | –
CCCCCCC(CCCCCC)OC(=O)CCCCCCCCCNC(=O)C(CCCCCCCCCC(=O)OC(CCCCCC)CCCCCC)N(CCCN1CCN(CO)CC1)C(=O)CCCN1CCN(CCO)CC1 (stereo not drawn) [Compound E11] | B (B: ≥1 and <2) | 0.158 | 85.75 nm | 0.85 mV | 93.77%
CCCCCCC(CCCCCC)OC(=O)CCCCCCCCCNC(=O)C(CCCCCCCCCC(=O)OC(CCCCCC)CCCCCC)N(CCCN(CCO)CCO)C(=O)CCCN(C)CCO (stereo not drawn) [Compound E2] | C (C: ≥0.1 and <1) | 0.143 | 78.64 nm | −9.45 mV | 91.65%
CCCCCCCC(C(=O)NCCCCCCCCCC(=O)OC(CCCCCC)CCCCCC)N(CCCN(CCO)CCO)C(=O)CCCCCCCCCC(=O)OCC1CC=CCC1 (stereo not drawn) [Compound B5] | A (A: ≥2) | 0.163 | 55.64 nm | 6.08 mV | 95.00%
CCCCCCCCNC(=O)C(CCCCCCCC)N(CCCN(C)CCCO)C(=O)CCCCCCC(=O)OC(CCCCCCCC)CCCCCCCC (stereo not drawn) [Compound B27] | B (B: ≥1 and <2) | – | – | – | –
CCCCCCCCC(C(=O)NCCCCCCCCCC(=O)OC(CCCCCC)CCCCCC)N(CCN(C)CCN(C(=O)CCCCCCCCCC(=O)OC(CCCCCC)CCCCCC)C(CCCCCCCC)C(=O)NCCCCCCCCCC(=O)OC(CCCCCC)CCCCCC)C(=O)CCCCCCCCCC(=O)OC(CCCCCC)CCCCCC (stereo not drawn) [Compound D6] | A (A: ≥2) | – | – | – | –
CCCCCCCCC(CCCCCC)COC(=O)CCCCCNC(=O)C(CCCCC)N(CCCCN(C)C)C(=O)CCCCCC(=O)OCC(CCCCCC)CCCCCCCC (stereo not drawn) [Compound A44] | B (B: ≥1 and <2) | – | – | – | –
CCCCCCCCC(CCCCCC)COC(=O)CCCCCNC(=O)C(CCCCC)N(CCCN(C)C)C(=O)CCCCCC(=O)OCC(CCCCCCCC)CCCCCCCC (stereo not drawn) [Compound A43] | A (A: ≥2) | – | – | – | –
CCCCCCCCC(C(=O)NCCCCCCCCCC(=O)OCCCCCC)N(CCCN(CO)CO)C(=O)CCCCCCCCCC(=O)OC(CCCCCC)CCCCCC (stereo not drawn) [Compound B1] | A (A: ≥2) | – | – | – | –
CCCCCCCCC(C(=O)NCCCCCCCCCC(=O)OC(CCCCCC)CCCCCC)N(CCCCN1CCN(CCCN(C(=O)CCCCCCCCCC(=O)OC(CCCCCC)CCCCCC)C(CCCCCCCC)C(=O)NCCCCCCCCCC(=O)OC(CCCCCC)CCCCCC)CC1)C(=O)CCCCCCCCCOC(=O)C(CCCCCC)CCCCCC (stereo not drawn) [Compound D3] | C (C: ≥0.1 and <1) | – | – | – | –
CCCCCCCCC(C(=O)NCCCCCCCCCC(=O)OC(CCCC)CCCCCC)N(CCCN1CCCC1)C(=O)CCCCCCCCCC(=O)OC(CCCC)CCCCCC (stereo not drawn) [Compound A3] | C (C: ≥0.1 and <1) | – | – | – | –
CCCCC/C=C\C/C=C\CCCCCCCCNC(=O)C(CCCCCCCC)N(CCCCCCCC/C=C\C/C=C\CCCCC)C(=O)CCCN(CCO)CCO (stereo not drawn) [Compound C7] | D (D: <0.1.) | – | – | – | –
CCCCCCCCNC(=O)C(CCCCCCCC)N(CC1CCCN(C)C1)C(=O)CCCCCCC(=O)OC(CCCCCCCC)CCCCCCCC (stereo not drawn) [Compound A39] | A (A: ≥2) | – | – | – | –
CCCCCCCCNC(=O)C(CCCCCCCC)N(CCCCN1CCCC1)C(=O)CCCCCCC(=O)OC(CCCCCCCC)CCCCCCCC (stereo not drawn) [Compound A37] | B (B: ≥1 and <2) | – | – | – | –
CCCCCCCCC(CCCCCCCC)OC(=O)CCCCCCC(=O)N(CCCN(C)C)C(CCCCCCCC)C(=O)NCCCCCC(=O)OCCC12CC3CC(CC(C3)C1)C2 (stereo not drawn) [Compound A47] | A (A: ≥2) | – | – | – | –
CCCCCCCCNC(=O)C(CCCCCCCC)N(CCCN(CC)CCO)C(=O)CCCCCCC(=O)OC(CCCCCCCC)CCCCCCCC (stereo not drawn) [Compound B28] | A (A: ≥2) | – | – | – | –
CCCCCCCC(C(=O)NCCCCCCCCCC(=O)OC(CCCCCC)CCCCCC)N(CCN(C)CCO)C(=O)CCCCCCCCCC(=O)OC(CCCCCC)CCCCCC (stereo not drawn) [Compound B9] | A (A: ≥2) | – | – | – | –
CCCCC/C=C\C/C=C\CCCCCCCC(=O)N(CCCCN1CCCC1)C(CCCCCCCCCCC)C(=O)NCCCCCCCCCCCCCC (stereo not drawn) [Compound A24] | C (C: ≥0.1 and <1) | – | – | – | –
CCCCC/C=C\C/C=C\CCCCCCCCNC(=O)C(CCCCCCCC)N(CCCCCCCC/C=C\C/C=C\CCCCC)C(=O)CCCN1CCCC1 (stereo not drawn) [Compound C4] | B (B: ≥1 and <2) | – | – | – | –
CCCCCCCCCCCCCCNC(=O)C(CCCCCCCCCCC)N(CCCCN1CCCC1)C(=O)CCCCCCC(=O)OC(CCCCCCCC)CCCCCCCC (stereo not drawn) [Compound A25] | D (D: <0.1.) | – | – | – | –
CCCCC/C=C\C/C=C\CCCCCCCCNC(=O)C(CCCCCCCC)N(CCCCCCCC/C=C\C/C=C\CCCCC)C(=O)CCCN(C)CCO (stereo not drawn) [Compound C6] | D (D: <0.1.) | – | – | – | –
CCCCCCCCNC(=O)C(CCCCCCCC)N(CCN(CC)CC)C(=O)CCCCCCC(=O)OC(CCCCCCCC)CCCCCCCC (stereo not drawn) [Compound A38] | A (A: ≥2) | – | – | – | –
